We go through 2 compounds from US5625061A, “Compounds useful in preparing antiproliferative agents and garft inhibitors” (Agouron Pharmaceuticals, Inc., priority 1995, dated 1997).

Data set [1] has as its system 6C3HED lymphosarcoma implanted in C3H/He female mice. As to the kind of experiment: In vivo antitumor activity, 6C3HED lymphosarcoma. The note with it: intraperitoneal, once daily for nine days, day 11. On the set-up: species or system mouse. On the procedure: On day zero, 2 mm^2 trocar fragments of 6C3HED lymphosarcoma were implanted subcutaneously in the axillary region into groups of six C3H/He female mice. Starting on day 1, the test compound was administered intraperitoneally in 40% Encapsin given once daily for nine days. Control animals received identical treatment without test: compound. The percentage inhibition given in Table 5 below was calculated by comparing the mass of the control tumors (receiving diluent only) on day 11 to those of animals receiving test compound.

In data set [2] the test system is C3H/BA mammary adenocarcinoma implanted in C3H/He female mice. Kind of data set: In vivo antitumor activity, C3H/BA mammary adenocarcinoma. On the set-up: species or system mouse. The conditions noted are these: intraperitoneal, once daily for nine days, day 14. The procedure: On day zero, 2 mm^2 trocar fragments of C3H/BA mammary adenocarcinoma were implanted subcutaneously in the axillary region into groups of six C3H/He female mice. Starting on day 1, the test compound was administered intraperitoneally in 40% Encapsin given once daily for nine days. Control animals received identical treatment without test compound. The percentage of inhibition was calculated by comparing the mass of the control tumors (receiving diluent only) on day 14 to those of animals receiving test compound.

Data set [3] concerns GARFT. The conditions noted are these: F. M. Muggia, New Drugs, 1992; cited from earlier work.

SMILES strings stand for the structures.

Turning to `Nc1nc2c(c(=O)[nH]1)SC(CCc1ccc(C(=O)N[C@@H](CCC(=O)O)C(=O)O)s1)CN2` (stereo partly drawn) [Compound 21, 4-[2-(2-Amino-4-oxo-4,6,7,8-tetrahydro-3H-pyrimido[5,4-6][1,4]thiazin-6-yl)-ethyl]-2,5-thienoylamino -L-glutamic acid], the “% Inhibition (tumor mass)” value turned out to be 100% in data set [1] (12.5 mg/kg); 100% in data set [1] (25 mg/kg); 16% in data set [2] (5 mg/kg); 84% in data set [2] (10 mg/kg); 100% in data set [2] (20 mg/kg). For the same compound, the “% Inhibition column: toxicity” value in data set [1] (50 mg/kg) is “toxic”.

`Nc1nc2c(c(=O)[nH]1)CC(CCc1ccc(C(=O)N[C@@H](CCC(=O)O)C(=O)O)cc1)CN2` (stereo partly shown) [5,10-dideazatetrahydrofolic acid]: the “GARFT inhibition (in words)” value in data set [3] is listed as “specific tight binding inhibitor of GARFT”.
